# Laboratory results taken from patent US9884851B2, “Heterocycle-bisamide inhibitors of scavenger receptor BI” (THE BROAD INSTITUTE, INC., priority 2012, dated 2018).
# “Also recorded” adds a separate entry of the source.
# Assays:
# SR-BI [1] = target: T1, SR-BI (Mus musculus, UniProt Q61009); assay: Cholesterol efflux assay; assay type: cell-based, murine; design: expressed in transfected cells; host or cells: ldlA[mSR-BI], Chinese hamster ovary (CHO) cells lacking LDL receptor (Krieger Laboratory); conditions: for inhibition of efflux of free cholesterol (in words): efflux to HDL
# T1 sequence (Q61009 1-509): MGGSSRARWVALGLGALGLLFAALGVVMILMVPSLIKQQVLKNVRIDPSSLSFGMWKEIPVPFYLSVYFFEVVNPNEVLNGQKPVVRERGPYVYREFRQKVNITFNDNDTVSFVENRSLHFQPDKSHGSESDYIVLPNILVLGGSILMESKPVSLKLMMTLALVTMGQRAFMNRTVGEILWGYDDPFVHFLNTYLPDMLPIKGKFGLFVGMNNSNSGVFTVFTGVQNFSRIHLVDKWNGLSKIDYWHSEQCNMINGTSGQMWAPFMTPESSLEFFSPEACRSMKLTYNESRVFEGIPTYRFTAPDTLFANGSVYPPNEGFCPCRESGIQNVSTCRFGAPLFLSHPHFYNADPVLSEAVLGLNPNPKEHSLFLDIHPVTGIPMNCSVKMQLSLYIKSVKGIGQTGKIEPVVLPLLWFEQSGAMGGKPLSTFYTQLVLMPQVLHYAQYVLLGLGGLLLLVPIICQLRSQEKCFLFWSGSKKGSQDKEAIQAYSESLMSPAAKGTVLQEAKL
# Description: SR-BI also mediates bidirectional flux (e.g. efflux) of unesterified or ‘free’ cholesterol (FC) between cells and HDL or other acceptors. This assay is used to determine if the compounds alter the efflux of free cholesterol to HDL.
# On Day 0, 50,000 cells per well were plated in 24-well plates. On the following day, the media was removed and [^3H]cholesterol in lipoprotein-deficient media was added. On Day 1, the medium was replaced with Ham's F12 medium supplemented with 10% bovine lipoprotein deficient serum with 1 μCi/ml [1,2-^3H]cholesterol (40-60 Ci/mmol). On Day 3, the cells were washed to remove serum and incubated in Ham's F12 plus 1% fatty acid-free BSA. On Day 4, the cells were washed and pretreated with compounds for 1 hour. Subsequently, the cells were incubated for an additional 2 hours with the same concentrations of small molecules and with unlabeled HDL (final HDL concentration of 100 μg protein/ml). The medium was collected to determine released cholesterol, and the cells were lysed. The amount of [^3H]cholesterol in the medium and cells was determined using liquid scintillation counting. Total cellular [^3H]cholesterol was calculated as the sum of the radioactivity in the efflux medium plus the radioactivity in the cells and was used to calculate the [^3H]cholesterol efflux (percent of total [^3H]cholesterol released into the medium).
# Solubility in PBS = assay type: physicochemical; conditions: PBS pH 7.4, 23° C., 1% DMSO
# Description: (§1) We noticed that the concentration of the probe fluctuated through the course of the assay (data not shown). We believe that this fluctuation is due to the low kinetic solubility of the probe. Thus, we decided to determine the amount of undissolved probe present in the well after it was treated with PBS for a given length of time, relative to the amount of undissolved probe at the start of the assay. The wells were centrifuged and the supernatant was removed after various time points, then acetonitrile was added to dissolve the remaining solid in the wells, and the amount of probe was quantified. […] The stability of the probe was confirmed by measuring stability in human plasma, with >99% remaining after a 5-hour incubation period. […] FIG. 5 summarizes known properties of the probe.
# SR-BI [2] = target: T1, SR-BI; assay: Radioactive HDL uptake assay (wild type SR-BI); assay type: cell-based, murine; design: expressed in transfected cells; host or cells: ldlA[mSR-BI], Chinese hamster ovary (CHO) cells lacking LDL receptor (Krieger Laboratory); conditions: [3H]cholesteryl ester HDL; read-out: IC50 in nonfluorescent, radiolabeled version of the uptake assay
# Text: Radioactive HDL Uptake Assay (Wild Type SR-BI) (SA 8: AID No. 588836)
# The goal of this assay was to verify compounds that disrupt the lipid uptake from HDL particles to SR-BI scavenger receptor-expressing cells using an alternative means of labeling HDL-particles and avoiding any type of fluorescence measurement. To measure this binding event, HDL particles are labeled with [^3H]cholesteryl ester and added to mSR-BI expressing cells. Cells take up the radioactive lipids from HDL via SR-BI in 2 to 3 hours. After significant uptake of the lipids from HDL, the radiolabel can be detected by liquid scintillation counting. The level of radioactivity correlates with the amount of HDL lipid uptake. The uptake of lipid from the HDL particles can be inhibited by the compound BLT-1 or when co-treated with an excess of unlabeled HDL. The mSR-BI expressing cells utilized in the assay are a Chinese hamster ovary (CHO) cell line lacking expression of the LDL receptors and overexpressing the scavenger receptor, SR-BI. Inhibitors of SR-BI and HDL lipid uptake will have a reduction in liquid scintillation counts.
# [3] = tested on: endocytosis of transferrin; assay: Transferrin endocytosis assay; assay type: cell-based, Chinese hamster; conditions: concentrations up to 35 μM
# Text: Transferrin Endocytosis Assay (SA 3: AID No. 602134)
# This assay measures the endocytosis of an independent ligand, transferrin, which is not taken up via SR-BI but by clathrin-mediated endocytosis; thus providing a measure of the selectivity of the inhibitors. Alexa-594-labeled transferrin is taken into the cell via endocytosis and localization of labeled transferrin can be quantitated in the various intracellular compartments. […] Inhibitors of interest should act selectively at SR-BI and should have no activity in this assay.
# Cells were pre-treated with compound for 3 hours and then treated with the Alexa-594 transferrin reagent for 30 minutes (Catalog No. T-13343; Invitrogen) in serum-free media. Plates of cells were then placed onto ice, washed with ice cold PBS, and then fixed with 4% paraformaldehyde. In addition, the nuclei were stained with 300 nM 4′,6-diamidino-2-phenylindole (DAPI) (Catalog No. 21490; Invitrogen). The cells were imaged with the Molecular Devices IXM microscope. Translocation measurements were performed using MetaExpress software and normalized for cell number.
# [4] = Stability in human plasma; assay type: in vitro ADME; conditions: 5-hour incubation
# Description: as §1
# [5] = listed as compound of Formula (II)
compound,measurement,setting,value
"C[C@H](C(=O)NC1CCCC1)N(C(=O)Cn1nnc(-c2ccc3c(c2)OCO3)n1)C1CCCCC1 [ML279, (R)-2-(2-(5-(Benzo[d][1,3]dioxol-5-yl)-2H-tetrazol-2-yl)-N-cyclohexylacetamido)-N-cyclopentylpropanamide]",reduction of efflux of free cholesterol from cells,SR-BI [1],about 50%
same,inhibition of efflux of free cholesterol (in words),SR-BI [1],inhibiting both SR-BI-mediated uptake of cholesteryl ester from HDL and efflux of free cholesterol to HDL particles; also recorded: inhibits efflux of free cholesterol
same,inhibition of efflux of free cholesterol (in words),SR-BI [1]; [5],inhibit efflux of cholesterol
same,solubility,Solubility in PBS; listed as CID53393835,27 µM
same,solubility,"Solubility in PBS; phosphate buffered saline, 23 °C, pH 7.4, aqueous buffer, kinetic from dmso stock",28 µM
same,IC50,SR-BI [2],1000 nM
same,endocytosis of transferrin (in words),[3],does not inhibit endocytosis of transferrin; also recorded: not grossly perturbing cellular membrane trafficking pathways; also recorded: no effect on the endocytosis of transferrin
same,endocytosis of transferrin (in words),[3]; [5],does not inhibit endocytosis of transferrin
same,"stability in human plasma, remaining",[4],> 99%
